Consider eleven compounds from patent US5457114A, “Amidinophenylalanine derivatives, a process for the preparation thereof, use thereof and agents containing these as anticoagulants” (Behringwerke Aktiengesellschaft, priority 1991, dated 1995).

The target of data set [1] is human thrombin (Homo sapiens, UniProt P00734). Description: Determination of the inhibition constants for thrombin. It counts as biochemical. Particulars: human thrombin 100 pM, 0.1 mM substrate S2238, pH 7.8, 37 degrees C., 10 min preincubation. The method, then:
The inhibition constants (Ki) for the substances were determined by known enzyme kinetic methods. The purity of the human thrombin employed was determined to be 87% by means of active site titration. […] Inhibitor and enzyme were preincubated for 10 minutes, and the reaction was started by adding the chromogenic substrate S2238.
The specificity of the inhibitors for thrombin and trypsin was determined. The specificity is defined as the ratio of the Ki values for trypsin and thrombin (Table II). […] The Ki values were calculated ([…]) from the IC50 value for thrombin and trypsin. The specificities emerged from the ratio of the trypsin and thrombin values.

The target in data set [2] is T1, Trypsin from bovine pancreas (Bos taurus, UniProt P00760).
T1 construct: from tissue; host or cells: bovine pancreas
T1 sequence (P00760 24-246): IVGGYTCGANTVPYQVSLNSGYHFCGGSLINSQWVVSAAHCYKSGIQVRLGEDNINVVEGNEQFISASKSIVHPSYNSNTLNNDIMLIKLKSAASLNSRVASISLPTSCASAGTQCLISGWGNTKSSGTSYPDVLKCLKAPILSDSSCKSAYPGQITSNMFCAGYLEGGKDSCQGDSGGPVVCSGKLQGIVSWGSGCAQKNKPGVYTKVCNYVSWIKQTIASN
Description: Determination of the specificity of the inhibitors (trypsin versus thrombin). Conditions: ratio of the Ki values for trypsin and thrombin; Ki calculated from IC50. It counts as biochemical. The method, then:
The specificity of the inhibitors for thrombin and trypsin was determined. The specificity is defined as the ratio of the Ki values for trypsin and thrombin (Table II). […] The enzymatic reaction was started by adding the substrate Chromozym TRY (7.1×10^-5 M). The liberation of pNA was measured at 405 nm after one hour. The IC50 values for thrombin were determined in an analogous manner, with the exceptions that human thrombin, buffer (50 mM tris-HCl, 50 mM NaCl, pH 7.8) and 5×10^-5 M S 2238 were used. The Ki values were calculated ([…]) from the IC50 value for thrombin and trypsin. The specificities emerged from the ratio of the trypsin and thrombin values.

For data set [3] the following is noted: rat, i.v.
Data set [4] is described as follows: Enteral administration. Particulars: in vivo.

The term Ki denotes the equilibrium dissociation constant of an inhibitor or competing ligand from its target. Read a low Ki as tighter binding.

`COc1cc(C)c(S(=O)(=O)N[C@@H](CC(=O)OC(C)C)C(=O)N[C@H](Cc2ccc(C(=N)N)cc2)C(=O)N2CCCCC2)c(C)c1C` [Mtr-Asp(iPr)-Aph-Pip, Mtr-L-Asp(OiPr)-D-Aph-Pip] had an inhibition constant Ki in data set [1] of 0.6 nM. In addition, the Specificity thrombin/trypsin in data set [2] is recorded as 378.

In the case of `COc1cc2ccc(S(=O)(=O)N[C@@H](CC(=O)O)C(=O)N[C@H](Cc3ccc(C(=N)N)cc3)C(=O)N3CCCCC3)cc2cc1OC` [Dmn-Asp-D-Aph-Pip, 6,7-Dimethoxy-β-naphthalenesulfonyl-L-Asp-D-p-amidinophenylalanyl Piperidide], in data set [1], the Ki was determined as 6 nM. Further, the Specificity thrombin/trypsin in data set [2] is listed as 230. The compound “4-Methoxy-2,3,6-trimethylphenylsulfonyl-L-Cys(SO3 H)-D-p-amidinophenylalanyl Piperidide [Mtr-L-Cys (SO3 H)-D-Aph-Pip]” gave a Ki in data set [1] of 0.6 nM. Also, the Specificity thrombin/trypsin in data set [2] is reported as 150. The corresponding values for `COc1cc(C)c(S(=O)(=O)NC(CC(=O)OC(C)(C)C)C(=O)NC(Cc2ccc(C(=N)N)cc2)C(=O)N2CCCCC2)c(C)c1C` [Mtr-Asp(tBu)-Aph-Pip, Mtr-L-Asp(OtBu)-D-Aph-Pip] are 0.9 nM and 297. For `N=C(N)c1ccc(CC(NC(=O)[C@H](CC(=O)O)NS(=O)(=O)c2ccc3ccccc3c2)C(=O)N2CCCCC2)cc1` (stereo partly drawn) [β-naphthylsulfonyl-L-Asp-D,L-Aph-Pip, β-Naphthylsulfonyl-L-Asp-D,L-Aph-Pip], the LD50 entry in data set [3] is on record as “about 120 mg/kg”.

As to `N=C(N)c1ccc(CC(NC(=O)CNS(=O)(=O)c2ccc3ccccc3c2)C(=O)N2CCCCC2)cc1` (stereo not drawn) [Napap, beta-naphthylsulfonyl-glycyl-R,S-4-amidinophenylalanyl piperidide, reference compound], in data set [2], the Specificity thrombin/trypsin is reported as 24. With “Beta-Naphthylsulfonyl-L-aspartic Acid D-p-amidinophenyl-alanyl-piperidide [Nas-Asp-D-Aph-Pip]”, the Ki in data set [1] came out at 10 nM. For the same compound, the Specificity thrombin/trypsin in data set [2] is given as 7. `N=C(N)c1ccc(C[C@H](NC(=O)[C@H](CC(N)=O)NS(=O)(=O)c2ccc3ccccc3c2)C(=O)N2CCCCC2)cc1` [Nas-Asn-Aph-Pip] came in with a Ki in data set [1] of 6 nM. Further, the Specificity thrombin/trypsin in data set [2] was 48.

Compound `COc1cc(C)c(S(=O)(=O)N[C@@H](CC(=O)O)C(=O)N[C@H](Cc2ccc(C(=N)N)cc2)C(=O)N2CCCCC2)c(C)c1C` [Mtr-Asp-D-Aph-Pip, 4-Methoxy-2,3,6-trimethylphenylsulfonyl-L-Asp-D-p-amidinophenylalanyl Piperidide] gave a Ki in data set [1] of 1.5 nM. The “possibility of enteral administration” value in data set [4] is reported as “possibility of enteral administration”. Moreover, the Specificity thrombin/trypsin in data set [2] is recorded as 125. As to `COc1cc(C)c(S(=O)(=O)N[C@@H](CC(=O)NCCCC(=O)O)C(=O)N[C@H](Cc2ccc(C(=N)N)cc2)C(=O)N2CCCCC2)c(C)c1C` [4-Methoxy-2,3,6-trimethylbenzenesulfonyl-L-aspartic Acid (Gamma-aminobutyric Acid)-D-Aph-piperidide], affinity in data set [1] was put at a Ki of 0.8 nM. Also, the Specificity thrombin/trypsin in data set [2] is listed as 1810.

The compound `COc1cc(C)c(S(=O)(=O)N[C@@H](CC(=O)N[C@@H]2O[C@H](C(=O)O)[C@@H](O)[C@H](O)[C@H]2O)C(=O)N[C@H](Cc2ccc(C(=N)N)cc2)C(=O)N2CCCCC2)c(C)c1C` [4-Methoxy-2,3,6-trimethylphenylsulfonyl-L-asparaginyl-N-[β-D-glucopyranosyl)uronic acid]-D-p-amidinophenylalanyl Piperidide] showed a Ki in data set [1] of 0.085 nM. Moreover, the Specificity thrombin/trypsin in data set [2] is reported as 4106.
